Assay [1] concerns the target T1, MEKK2 (Homo sapiens, UniProt Q9Y2U5).
T1 construct: purchased Invitrogen / ThermoFisher SelectScreen
Description: SelectScreen kinase panel. The class given is binding. On the procedure:
(§1) The ability of NIK to catalyze the hydrolysis of adenosine-5′-triphosphate (ATP) was monitored using the Transcreener ADP (adenosine-5′-diphosphate) assay (Bell Brook Labs, Fitchburg, WI). Purified human NIK kinase domain (a.a. 340–694) (0.5 nM) or mouse NIK kinase domain (a.a. 329–675) (1 nM) derived from a baculovirus-infected insect cell expression system was incubated with test compounds for 0.5–2 h in 50 mM HEPES buffer (pH 7.2) containing 10 mM MgCl2, 2 mM dithiothreitol, 10 μM ATP, 0.01% Triton X-100, 0.1% gamma-globulins from bovine blood, 1% dimethylsulfoxide (DMSO), 7 μg/mL ADP antibody and 5 nM ADP-MR121 633 tracer. Reactions were quenched by the addition of 20 mM EDTA and 0.01% Brij 35. The tracer bound to the antibody was displaced by the ADP generated during the NIK reaction, which caused a decrease in fluorescence polarization that was measured by laser excitation at 633 nm with a Fluorescence Correlation Spectroscopy Plus reader (Evotec AG). Equilibrium dissociation constant (Ki) values for NIK inhibitors are calculated from plots of activity vs. inhibitor concentration using Morrison’s quadratic equation that accounts for the potential of tight binding, and by also applying the conversion factor that accounted for competitive inhibition and the concentration of substrate used in the assay relative to its Michaelis constant (Km). The Ki values with hPKD1 (PKCμ) were determined using the same assay conditions as for NIK. Ki measurements for hKHS1 and hLRRK2, as well as broad kinase selectivity profiling for SMI1, were carried out by Invitrogen using their SelectScreen kinase assay panel (ThermoFisher Scientific, Madison, WI). The vendor offered two types of kinase activity assays, a peptide phosphorylation assay (Z′-LYTE) and an ADP quantitation assay (Adapta), as well as one type of kinase ATP site competitive binding assay (LanthaScreen). See vendor web site for technology and protocol details for each specific kinase assay.
(§2) The average % Inhibition of each kinase is reported (Supplementary Table 1).

Assay [2] deals with T2, MLK2 (Homo sapiens, UniProt Q02779).
T2 construct: purchased Invitrogen / ThermoFisher SelectScreen
Description: SelectScreen kinase panel. Format: binding. As for the experimental part: as §1, §2

For assay [3], the target named is T3, LIMK1 (Homo sapiens, UniProt P53667).
T3 construct: purchased Invitrogen / ThermoFisher SelectScreen
The assay is described as follows: SelectScreen kinase panel. The class given is binding. As for the experimental part:
as §1, §2

Assay [4] has as its target T4, MYLK3 (Homo sapiens, UniProt Q32MK0).
T4 construct: purchased Invitrogen / ThermoFisher SelectScreen
The assay is described as follows: SelectScreen kinase panel. Format: binding. On the procedure:
as §1, §2

Assay [5] deals with T5, CAMKK1 (Homo sapiens, UniProt Q8N5S9).
T5 construct: purchased Invitrogen / ThermoFisher SelectScreen
The assay is described as follows: SelectScreen kinase panel. The class given is binding. On the procedure:
as §1, §2

Assay [6] has as its target T6, TAK1-TAB1 (Homo sapiens, UniProt O43318).
T6 construct: purchased Invitrogen / ThermoFisher SelectScreen
The assay is described as follows: SelectScreen kinase panel. Format: binding. On the procedure: as §1, §2

In assay [7] the target is T7, WNK2 (Homo sapiens, UniProt Q9Y3S1).
T7 construct: purchased Invitrogen / ThermoFisher SelectScreen
The assay is described as follows: SelectScreen kinase panel. Format: binding. On the procedure: as §1, §2

Assay [8] concerns the target T8, CLK4 (Homo sapiens, UniProt Q9HAZ1).
T8 construct: purchased Invitrogen / ThermoFisher SelectScreen
Description: SelectScreen kinase panel. Format: binding. On the procedure: as §1, §2

The target in assay [9] is T9, TNK2 (Homo sapiens, UniProt Q07912).
T9 construct: purchased Invitrogen / ThermoFisher SelectScreen
The assay is described as follows: SelectScreen kinase panel. The class given is binding. On the procedure: as §1, §2

The subject of assay [10] is C57BL/6 mice. Description: Seven-day in vivo B cell survival model. Further details: species or system mouse.
The subject of assay [11] is NZB/W F1 mice. Description: rAdV-IFNα-accelerated NZB/W F1 lupus model, survival study. The class given is in vivo, mouse. On the procedure:
Age-matched (NZB x NZW) F1 mice were purchased from Jackson Laboratory. Fourteen to fifteen weeks old female NZB/W F1 mice were injected i.v. with 1.2 × 10^8 rAD5-CMV-IFNα (rAdV-IFNα) particles (Genentech) to accelerate disease[34],[69]. […] In efficacy studies, proteinuria and survival were tracked through day 84. A 4-week PD study was performed to measure cell subsets, serum Ig, chemokines, cytokines, and gene expression.
Kidneys were immersed in 10% neutral buffered formalin at ambient temperature for 24 h, then paraffin-embedded using routine methods. Four micron histologic sections were stained with Periodic acid–Schiff (PAS) for evaluation of glomerulonephritis and hematoxylin and eosin (H&E) for visual evaluation of interstitial inflammation by light microscopy. Scoring by the pathologist was performed in a blinded fashion. Glomerulonephritis severity scoring was on a 4-point semi-quantitative scale: “0” – normal or mild global lesions in <50% of glomeruli, “1”—global lesions in > 50% of glomeruli, <20% of which are severe (defined as >1 segment with <3 patent capillaries), “2”—global lesions in >50% of glomeruli, 20–80% of which are severe, and “3”— >80% of glomeruli with severe global lesions. Chronic pyelitis, cortical periarteritis, and tubulointerstitial nephritis severity was determined by blinded disease scoring. Severity scores for tubulointerstitial nephritis, periarteritis, and pyelitis were all on 4-point semiquantitative scales: “0”—no significant inflammation, “1”—sparse or focal inflammatory infiltrates, “2”—occasional moderately sized inflammatory infiltrates, and “3”—frequent large inflammatory infiltrates. Proteinuria measurements were done by dipstick (Multistix, Bayer Diagnostics). Protein concentration was assigned a proteinuria score with trace = […] = 1, 100 mg/dl = 2, >300 mg/dl = 4, and dead mice = 5.

Assay [12] relates to human B cells. Description: BAFF B cell survival assay (Cell Titer Glo). The class given is cell-based. On the procedure: Human B cells were isolated using Miltenyi Human B cell isolation kit following ficoll separation of buffy coats. […] Mouse B cells were isolated from mouse spleen using Miltenyi mouse B cell isolation kit II. Cells were plated in Co-star 96-well plates at either 50,000 cells/well for the survival assays or at 150,000 cells/well for the proliferation assays. Compounds diluted in DMSO (final DMSO assay concentration = 0.1%) were added to the cells. The cells were incubated with compound for one hour at 37 °C. Stimulus was then added to the plates and survival or proliferation was measured after four days. For the proliferation assays, cells were treated with either Anti-IgM (20 μg/mL) or rhCD40L (10 μg/mL; R&D) or anti-mouse CD40 (100 ng/mL). Proliferation was measured using thymidine incorporation on day four. For the BAFF survival assay, cells were treated with human or mouse rBAFF (R&D Systems) at 10 ng/ml followed by Cell Titer Glo (Promega) to measure survival on day four.
For orientation: In ATP-based viability assays light output follows the ATP content of the culture.

For assay [13], the system named is FVB mice. Description: Imiquimod-induced FVB mouse lupus model. Format: in vivo. To be noted: 200 mg/kg P.O. BID; Imiquimod treated FVB mice. As for the experimental part: Age-matched female FVB mice were purchased from Jackson Laboratory and randomized into experimental groups upon receipt. Ten-week-old female FVB mice were treated with 10 mg of 5% Imiquimod cream (Taro Pharmaceuticals, USA, Hawthorne, N.Y.) applied to the left ear (three doses per week for the duration of the study). […] Proteinuria and survival were tracked through day 91. Plasma PK measurement was done at day 85 prior to the end of the study.

Entries after “also recorded” stand apart in the source; their conditions may differ.

One may read the inhibition as the relative decrease from the control value, in per cent. As a reminder, the IC50 is the concentration at which inhibition is half-maximal. A high value points to weaker potency in that assay.

T2 sequence (Q02779 whole entry): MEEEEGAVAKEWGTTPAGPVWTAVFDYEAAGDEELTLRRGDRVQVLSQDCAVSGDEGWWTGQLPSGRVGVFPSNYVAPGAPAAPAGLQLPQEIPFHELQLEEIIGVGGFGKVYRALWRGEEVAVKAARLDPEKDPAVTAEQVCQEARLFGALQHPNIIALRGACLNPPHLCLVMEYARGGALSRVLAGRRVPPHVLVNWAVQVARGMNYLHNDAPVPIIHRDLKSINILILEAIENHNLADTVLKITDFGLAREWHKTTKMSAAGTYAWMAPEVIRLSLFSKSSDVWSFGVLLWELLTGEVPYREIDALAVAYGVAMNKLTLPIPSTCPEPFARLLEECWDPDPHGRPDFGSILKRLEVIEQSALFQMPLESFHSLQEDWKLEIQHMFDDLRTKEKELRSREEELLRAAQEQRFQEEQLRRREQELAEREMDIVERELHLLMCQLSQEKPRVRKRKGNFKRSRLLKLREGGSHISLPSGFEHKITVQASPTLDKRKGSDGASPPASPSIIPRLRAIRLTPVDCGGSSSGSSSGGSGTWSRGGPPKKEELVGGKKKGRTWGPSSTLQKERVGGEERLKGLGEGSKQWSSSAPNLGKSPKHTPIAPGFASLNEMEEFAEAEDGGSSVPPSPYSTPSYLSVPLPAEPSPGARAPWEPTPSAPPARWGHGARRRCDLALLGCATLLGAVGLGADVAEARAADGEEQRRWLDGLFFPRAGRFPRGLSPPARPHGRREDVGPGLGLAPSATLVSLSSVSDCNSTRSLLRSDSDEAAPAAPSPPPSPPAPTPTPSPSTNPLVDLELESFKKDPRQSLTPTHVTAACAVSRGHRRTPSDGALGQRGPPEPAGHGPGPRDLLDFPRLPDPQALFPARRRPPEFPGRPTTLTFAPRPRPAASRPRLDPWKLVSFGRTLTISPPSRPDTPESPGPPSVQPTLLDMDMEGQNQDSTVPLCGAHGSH
T5 sequence (Q8N5S9 whole entry): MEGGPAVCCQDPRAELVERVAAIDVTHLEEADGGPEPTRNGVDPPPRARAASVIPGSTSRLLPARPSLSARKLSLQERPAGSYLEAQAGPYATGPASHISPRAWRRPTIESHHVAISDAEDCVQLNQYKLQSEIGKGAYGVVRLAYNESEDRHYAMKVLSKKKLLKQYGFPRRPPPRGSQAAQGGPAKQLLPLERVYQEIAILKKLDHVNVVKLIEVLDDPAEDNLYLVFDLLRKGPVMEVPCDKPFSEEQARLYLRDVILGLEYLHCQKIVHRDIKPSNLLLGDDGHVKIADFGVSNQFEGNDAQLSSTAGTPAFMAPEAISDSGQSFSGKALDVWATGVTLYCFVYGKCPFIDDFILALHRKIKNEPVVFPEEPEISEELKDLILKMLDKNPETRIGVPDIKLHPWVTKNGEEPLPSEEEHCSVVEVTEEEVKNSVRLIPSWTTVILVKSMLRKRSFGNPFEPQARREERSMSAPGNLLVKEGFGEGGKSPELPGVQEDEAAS
T7 sequence (Q9Y3S1 whole entry): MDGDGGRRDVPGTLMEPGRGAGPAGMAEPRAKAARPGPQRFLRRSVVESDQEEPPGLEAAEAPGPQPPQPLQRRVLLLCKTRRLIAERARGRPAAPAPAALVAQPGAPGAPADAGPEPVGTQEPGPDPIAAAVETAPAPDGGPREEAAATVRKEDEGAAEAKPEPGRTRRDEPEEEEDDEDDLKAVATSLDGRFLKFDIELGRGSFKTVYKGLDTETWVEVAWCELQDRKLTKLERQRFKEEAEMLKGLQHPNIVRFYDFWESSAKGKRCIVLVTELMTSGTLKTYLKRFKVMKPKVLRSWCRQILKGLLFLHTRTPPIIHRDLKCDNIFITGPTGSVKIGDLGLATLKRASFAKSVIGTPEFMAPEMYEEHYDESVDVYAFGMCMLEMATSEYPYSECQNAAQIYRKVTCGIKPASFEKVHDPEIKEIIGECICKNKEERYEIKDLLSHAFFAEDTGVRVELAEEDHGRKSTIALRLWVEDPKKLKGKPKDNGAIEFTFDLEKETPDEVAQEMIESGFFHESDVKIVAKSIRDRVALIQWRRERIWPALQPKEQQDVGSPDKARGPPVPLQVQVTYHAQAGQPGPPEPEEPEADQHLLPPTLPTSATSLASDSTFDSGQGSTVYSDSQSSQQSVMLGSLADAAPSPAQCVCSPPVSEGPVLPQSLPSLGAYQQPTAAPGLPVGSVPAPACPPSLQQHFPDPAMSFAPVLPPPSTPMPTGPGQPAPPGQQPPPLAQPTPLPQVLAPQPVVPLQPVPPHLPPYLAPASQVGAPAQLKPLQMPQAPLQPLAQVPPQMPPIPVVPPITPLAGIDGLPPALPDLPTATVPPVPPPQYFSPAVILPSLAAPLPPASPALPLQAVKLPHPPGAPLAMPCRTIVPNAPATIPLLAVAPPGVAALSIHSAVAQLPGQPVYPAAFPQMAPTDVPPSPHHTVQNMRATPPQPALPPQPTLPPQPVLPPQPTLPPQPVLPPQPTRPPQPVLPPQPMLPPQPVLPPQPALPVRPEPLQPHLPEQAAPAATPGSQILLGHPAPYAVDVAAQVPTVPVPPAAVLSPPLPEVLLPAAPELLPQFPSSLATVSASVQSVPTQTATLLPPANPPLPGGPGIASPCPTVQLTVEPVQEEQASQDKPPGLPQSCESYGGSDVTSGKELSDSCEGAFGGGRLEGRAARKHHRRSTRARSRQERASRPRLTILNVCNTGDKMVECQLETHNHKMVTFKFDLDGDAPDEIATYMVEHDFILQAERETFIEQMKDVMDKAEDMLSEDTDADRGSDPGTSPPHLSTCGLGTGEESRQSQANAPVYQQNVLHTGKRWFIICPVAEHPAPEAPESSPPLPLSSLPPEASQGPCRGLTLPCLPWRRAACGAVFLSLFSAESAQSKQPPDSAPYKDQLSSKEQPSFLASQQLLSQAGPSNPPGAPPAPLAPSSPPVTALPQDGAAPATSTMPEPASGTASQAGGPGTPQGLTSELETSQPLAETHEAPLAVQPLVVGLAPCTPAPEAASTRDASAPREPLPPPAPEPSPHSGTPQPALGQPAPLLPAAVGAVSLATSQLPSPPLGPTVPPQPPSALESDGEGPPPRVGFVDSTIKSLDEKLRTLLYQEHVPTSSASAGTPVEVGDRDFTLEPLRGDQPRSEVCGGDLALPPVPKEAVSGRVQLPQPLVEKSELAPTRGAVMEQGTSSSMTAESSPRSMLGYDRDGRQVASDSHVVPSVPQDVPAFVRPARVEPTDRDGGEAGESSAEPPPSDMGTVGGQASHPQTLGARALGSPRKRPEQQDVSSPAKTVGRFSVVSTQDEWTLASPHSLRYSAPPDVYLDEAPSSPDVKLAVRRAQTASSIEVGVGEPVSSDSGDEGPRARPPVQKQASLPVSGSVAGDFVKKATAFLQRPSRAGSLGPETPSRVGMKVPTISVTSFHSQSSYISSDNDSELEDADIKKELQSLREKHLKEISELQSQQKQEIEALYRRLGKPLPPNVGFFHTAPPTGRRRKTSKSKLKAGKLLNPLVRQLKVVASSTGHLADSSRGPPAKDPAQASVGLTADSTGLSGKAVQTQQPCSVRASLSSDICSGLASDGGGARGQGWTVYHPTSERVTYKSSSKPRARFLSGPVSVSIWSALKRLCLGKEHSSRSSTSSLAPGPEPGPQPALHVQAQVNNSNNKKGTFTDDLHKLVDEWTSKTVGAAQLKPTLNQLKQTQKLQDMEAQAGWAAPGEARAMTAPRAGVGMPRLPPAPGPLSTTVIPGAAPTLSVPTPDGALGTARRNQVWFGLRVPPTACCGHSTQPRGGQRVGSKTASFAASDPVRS
T6 sequence (O43318 with tags, fused parts or gaps limits assumed): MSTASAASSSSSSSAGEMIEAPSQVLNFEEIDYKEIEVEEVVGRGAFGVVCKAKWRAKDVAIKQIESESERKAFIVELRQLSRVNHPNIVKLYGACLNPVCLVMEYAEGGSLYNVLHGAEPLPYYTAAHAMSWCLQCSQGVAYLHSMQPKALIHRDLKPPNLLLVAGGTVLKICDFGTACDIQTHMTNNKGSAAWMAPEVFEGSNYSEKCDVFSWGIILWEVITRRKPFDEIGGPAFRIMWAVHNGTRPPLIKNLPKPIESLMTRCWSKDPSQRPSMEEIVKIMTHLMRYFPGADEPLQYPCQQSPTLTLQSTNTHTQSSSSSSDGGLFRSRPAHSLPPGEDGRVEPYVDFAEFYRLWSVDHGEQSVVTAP
T8 sequence (Q9HAZ1 whole entry): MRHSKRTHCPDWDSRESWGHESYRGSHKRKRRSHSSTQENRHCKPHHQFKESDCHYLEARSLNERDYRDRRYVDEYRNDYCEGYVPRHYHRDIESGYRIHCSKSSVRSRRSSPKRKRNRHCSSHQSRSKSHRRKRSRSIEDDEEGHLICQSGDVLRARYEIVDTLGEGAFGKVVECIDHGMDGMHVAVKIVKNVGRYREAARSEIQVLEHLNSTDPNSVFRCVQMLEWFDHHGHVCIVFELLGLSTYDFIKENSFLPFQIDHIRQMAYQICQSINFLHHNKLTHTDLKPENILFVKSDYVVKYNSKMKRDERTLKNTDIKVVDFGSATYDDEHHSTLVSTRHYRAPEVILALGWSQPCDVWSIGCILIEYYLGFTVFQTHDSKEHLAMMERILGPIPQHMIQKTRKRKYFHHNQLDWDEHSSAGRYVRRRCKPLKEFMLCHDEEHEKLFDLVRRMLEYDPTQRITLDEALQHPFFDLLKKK

With `COc1cc(C(N)=O)nc(-c2cccc(C#C[C@]3(O)CCN(C)C3=O)c2)c1` [NIK SMI1], the inhibition at 1 µM in assay [1] was 66.8%; in assay [2], 9.9%; in [3] it was 16.8%; in assay [4] it was 45.3%; in [5], -11.6%; in assay [6] it was 31.1%. Moreover, the inhibition at 1 µM worked out at 1.7% in [7], 13.7% in [8] and 0.1% in [9]. Besides, the “splenic cellularity, frequency and absolute numbers of total B2, marginal zone and follicular B cells in the spleen” value in assay [10] (6-400 mg/kg BID oral, 7 days) is on record as “dose-dependently reduced”. For the same molecule, the “reduction of serum IgA levels” value in [10] (after 1 week of treatment, oral BID) is given as “approximately 50%”. In [11] (180 mg/kg BID P.O., 9 weeks), the reduction of mortality entry is “about 50%”. Further, the “inhibition of NIK at the time point of lowest exposure” value in [11] (180 mg/kg, 12 h after the prior dose, based on PK sampling) was “about 70%”. The proteinuria score entry in assay [11] (9 weeks of treatment, AUC day 19-84) is “statistically significant reduction”. In addition, the figures for the survival entry in assay [11] (IFNα-accelerated NZB/W F1 mice) and in [13] were “improved survival” and “efficacious; also recorded: improved survival”, respectively. Further, the midpoint of inhibition in assay [12] (Homo sapiens, B-cell, BAFF induced, mean ± SD), the IC50, lay at 189 nM. Further, in assay [12] (human B cells), the “BAFF-driven survival of B cells in vitro” value is “completely inhibited”.

For the origin of these results see paper PMC5766581, “NF-κB inducing kinase is a therapeutic target for systemic lupus erythematosus” (Nature Communications, 2018).
